The values below come from patent publication US10858365B2, “Triazolo-pyrimidine compounds and uses thereof” (Dizal (Jiangsu) Pharmaceutical Co., Ltd., priority 2018, dated 2020).

Assay [1] concerns the target T1, hA2a (Homo sapiens (Human), UniProt P29274). In words: cAMP inhibition assay in hA2a/CHO cells. In kind it is cell-based. The settings on record: adenosine stimulation, read-out: cAMP & FLIPR IC50 (nM) hA2a. An outline of the steps:
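CHO cells expressing human A2a, human A2b or mouse A2a, 5×10^3 cells/well, pre-incubated with compound 30 min at 37 °C, then stimulated with […] adenosine 30 min at 37 °C. cAMP read after 60 min room-temperature incubation with detection reagent.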

Assay [2] addresses hA2b (Homo sapiens (Human), UniProt P29275). In words: cAMP inhibition assay in hA2b/CHO cells. In kind it is cell-based. The settings on record: adenosine stimulation, read-out: cAMP & FLIPR IC50 (nM) hA2b. The protocol:
(§1) hA2a/CHO, hA2b/CHO and mA2a/CHO (Genscript) were plated at 5×10^3 cells/well into 384-well polystyrene plates at the day of experiment. Compounds were pre-incubated with cells for 30 min at 37° C., 5% CO2. Then […] adenosine was added to the cells and incubated for 30 min at 37° C., 5% CO2. Detection reagent (CISBIO) was added and the plates were incubated for 60 min at room temperature. The signal was captured by Envision.

Assay [3] concerns the target mA2a (Mus musculus (Mouse), UniProt Q60613). In words: cAMP inhibition assay in mA2a/CHO cells. The assay is classed as cell-based. The note with it: adenosine stimulation, read-out: cAMP & FLIPR IC50 (nM) mA2a. As for the experimental part:
as §1

The target of assay [4] is T2, hA1 (Homo sapiens (Human), UniProt P30542). Description: FLIPR inhibition assay in hADORA1/CHO (hA1 expressing) cells. The assay is classed as cell-based. The settings on record: hADORA1/CHO cells, FLIPR calcium, adenosine stimulation; read-out: cAMP & FLIPR IC50 (nM) hA1. An outline of the steps: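 CHO cells expressing human A1 were plated at 1×10^4 cells/well the day before, then loaded with FLIPR Calcium 5 dye for 60 min at 37 °C, 5% CO2. Compounds were added at several concentrations for 400 s before stimulation with […] adenosine. The calcium signal was recorded by FLIPR.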

Assay [5] deals with hA3 (Homo sapiens (Human), UniProt P0DMS8). Description: cAMP & FLIPR inhibition, hA3 over-expressing cell line. The assay is classed as cell-based. From the text: FLIPR™ and cAMP inhibition activities of exemplary compounds in different adenosine receptor over-expressing cell lines are shown in Table 4 below.
The target of assay [6] is T2, hA1. In words: Radioligand binding to hA1 membrane ([3H]-DPCPX). The settings on record: 50 min at 25° C., read-out: Binding Affinity (IC50 nM) hA1. The protocol:
(§2) Binding affinity and specificities of the compounds against different subtype of human adenosine receptors (hA1, hA2A, hA2B and hA3) were characterized with cell membrane chromatography binding analysis.
The compounds at different concentrations were incubate with hA1 membrane (from PerkinElmer) and [^3H]-8-Cyclopentyl-1,3-dipropylxanthine (DPCPX) for 50 min at 25° C., meanwhile 100 μL 0.5% PEI solution was added into […]-96 GF/B filter plate for 60 min at 4° C., then […]-96 GF/B filter plate was washed twice with 50 ml wash buffer, the membrane mix was transferred into […]-96 GF/B filter plate, and the filter plate was washed 4 times before incubated at 55° C. for 10 min. At last, […] ULTIMA GOLD was added into each well, and CPM was read by TopCount.
(§3) The empty boxes in the tables below indicate data not available.

The target of assay [7] is T1, hA2a. Description: Radioligand binding to hA2a membrane ([3H]-CGS21680). The settings on record: [3H]-CGS21680, 90 min at 25° C., read-out: Binding Affinity (IC50 nM) hA2a. As for the experimental part: as §2
The compounds at different concentrations were incubate with hA2a membrane (from PerkinElmer) and [^3H]-CGS21680 for 90 min at 25° C., meanwhile 100 μL 0.5% PEI solution was added into […]-96 GF/B filter plate for 60 min at 4° C., then […]-96 GF/B filter plate was washed twice with 50 ml wash buffer, the membrane mix was transferred into […]-96 GF/B filter plate, and the filter plate was washed 4 times before incubated at 55° C. for 10 min. At last, […] ULTIMA GOLD was added into each well, and CPM was read by TopCount.
as §3

mA2a, sequence (Q60613 whole entry): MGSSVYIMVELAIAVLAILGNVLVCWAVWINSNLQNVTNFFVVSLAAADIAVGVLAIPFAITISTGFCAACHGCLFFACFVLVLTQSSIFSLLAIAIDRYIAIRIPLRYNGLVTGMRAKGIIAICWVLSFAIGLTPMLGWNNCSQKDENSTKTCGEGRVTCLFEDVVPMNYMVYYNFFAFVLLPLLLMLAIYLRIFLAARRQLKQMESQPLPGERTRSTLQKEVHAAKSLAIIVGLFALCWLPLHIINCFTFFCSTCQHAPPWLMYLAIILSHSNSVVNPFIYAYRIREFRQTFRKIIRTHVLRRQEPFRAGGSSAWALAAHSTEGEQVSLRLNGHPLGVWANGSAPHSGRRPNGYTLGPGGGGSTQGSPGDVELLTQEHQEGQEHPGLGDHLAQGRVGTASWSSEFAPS
T1 sequence (P29274 whole entry): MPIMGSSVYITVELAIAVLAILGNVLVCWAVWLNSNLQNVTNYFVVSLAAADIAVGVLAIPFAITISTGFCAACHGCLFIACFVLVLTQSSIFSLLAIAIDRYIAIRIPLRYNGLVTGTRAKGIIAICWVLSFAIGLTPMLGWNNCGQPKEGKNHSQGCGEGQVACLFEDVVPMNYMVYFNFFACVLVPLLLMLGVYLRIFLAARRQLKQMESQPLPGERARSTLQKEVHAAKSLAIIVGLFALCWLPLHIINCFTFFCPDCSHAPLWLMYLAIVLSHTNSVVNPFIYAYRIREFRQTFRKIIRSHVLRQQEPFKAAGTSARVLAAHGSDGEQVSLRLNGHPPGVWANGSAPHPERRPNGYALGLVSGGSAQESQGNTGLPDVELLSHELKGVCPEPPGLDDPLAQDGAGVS
T2 sequence (P30542 whole entry): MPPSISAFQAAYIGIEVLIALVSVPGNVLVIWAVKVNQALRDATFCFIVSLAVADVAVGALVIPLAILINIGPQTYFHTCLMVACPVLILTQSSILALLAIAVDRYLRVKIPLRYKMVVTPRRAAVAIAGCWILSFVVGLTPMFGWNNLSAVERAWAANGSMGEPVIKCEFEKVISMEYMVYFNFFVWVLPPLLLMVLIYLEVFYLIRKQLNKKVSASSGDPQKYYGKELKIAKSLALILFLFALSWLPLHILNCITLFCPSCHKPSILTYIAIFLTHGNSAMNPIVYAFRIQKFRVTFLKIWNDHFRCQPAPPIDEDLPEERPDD
hA3, sequence (P0DMS8 whole entry): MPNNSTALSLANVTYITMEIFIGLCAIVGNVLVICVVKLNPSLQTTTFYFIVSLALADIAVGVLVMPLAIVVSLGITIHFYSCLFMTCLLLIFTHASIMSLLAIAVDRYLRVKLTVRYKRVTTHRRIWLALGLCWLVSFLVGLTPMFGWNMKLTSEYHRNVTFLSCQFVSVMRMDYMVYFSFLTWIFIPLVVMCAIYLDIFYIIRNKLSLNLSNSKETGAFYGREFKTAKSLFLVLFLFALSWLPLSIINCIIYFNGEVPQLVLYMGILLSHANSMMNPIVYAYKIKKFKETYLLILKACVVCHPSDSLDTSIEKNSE
hA2b, sequence (P29275 whole entry): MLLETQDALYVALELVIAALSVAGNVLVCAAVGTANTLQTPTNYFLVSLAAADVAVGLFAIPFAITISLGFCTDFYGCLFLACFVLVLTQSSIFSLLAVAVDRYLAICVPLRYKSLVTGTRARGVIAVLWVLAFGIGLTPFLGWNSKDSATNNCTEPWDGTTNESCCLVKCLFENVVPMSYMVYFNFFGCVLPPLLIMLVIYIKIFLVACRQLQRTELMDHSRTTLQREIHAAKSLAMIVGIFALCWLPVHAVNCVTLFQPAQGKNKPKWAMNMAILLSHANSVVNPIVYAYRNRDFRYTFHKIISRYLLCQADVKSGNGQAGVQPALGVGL

Turning to `Cc1cc(-c2c(-c3ccc(F)cc3)nc(N)n3nc(Cc4ncccc4F)nc23)ccn1` [Example 2, 7-(4-fluorophenyl)-2-((3-fluoropyridin-2-yl)methyl)-8-(2-methylpyridin-4-yl)-[l,2,4]triazolo[l,5-c]pyrmidin-5-amine], the IC50 in assay [1] is 59 nM; in assay [2], 73 nM; in assay [3], 59 nM; in assay [4], 23 nM; in assay [5], greater than 10000 nM.

Take `Nc1nc(-c2ccc(F)cc2)c(-c2ccnc(Cl)c2)c2nc(Cc3ncccc3F)nn12` [Example 3, 8-(2-chloropyridin-4-yl)-7-(4-fluorophenyl)-2-((3-fluoropyridin-2-yl)methyl)-[1,2,4]triazolo[1,5-c]pyrmidin-5-amine]: the IC50 is 56 nM in assay [1]; 65 nM in assay [2]; 70 nM in assay [3]; 42 nM in assay [4]; greater than 10000 nM in assay [5].

With `Nc1nc(-c2ccc(F)cc2)c(-c2ccnnc2)c2nc(Cc3c(F)cccc3F)nn12` [Example 6, 2-(2,6-difluorobenzyl)-7-(4-fluorophenyl)-8-(pyridazin-4-yl)-[1,2,4]triazolo[1,5-c]pyrimidin-5-amine], the half-maximal inhibitory concentration (IC50) in assay [1] was 63 nM; in assay [2], 17 nM; in assay [3] it was 182 nM; in assay [4], 21 nM; in assay [5], greater than 10000 nM.

For the molecule `Cc1cc(-c2c(-c3ccc(F)cc3)nc(N)n3nc(Cc4cscn4)nc23)ccn1` [Example 7, 7-(4-fluorophenyl)-8-(2-methylpyridin-4-yl)-2-[(1,3-thiazol-4-yl)methyl]-[1,2,4]triazolo[1,5-c]pyrimidin-5-amine], the IC50 was 102 nM in assay [1]; 1600 nM in assay [2]; 209 nM in assay [3]; 23 nM in assay [4]; greater than 10000 nM in assay [5].

Regarding `Cc1cc(-c2c(-c3ccc(F)cc3)nc(N)n3nc(Cc4cccc(Cl)c4)nc23)ccn1` [Example 8, 2-[(3-chlorophenyl)methyl]-7-(4-fluorophenyl)-8-(2-methylpyridin-4-yl)-[1,2,4]triazolo[1,5-c]pyrimidin-5-amine], the IC50 is 59 nM in assay [1]; 2950 nM in assay [2]; 98 nM in assay [3]; 162 nM in assay [4]; greater than 10000 nM in assay [5].

Consider `Cn1cc(-c2c(-c3ccc(F)cc3)nc(N)n3nc(Cc4c(F)cccc4F)nc23)ccc1=O` [Example 9, 5-(5-amino-2-(2,6-difluorobenzyl)-7-(4-fluorophenyl)-[1,2,4]triazolo[1,5-c]pyrimidin-8-yl)-l-methylpyridin-2(1H)-one], for which the IC50 in assay [6] was 0.2 nM; in assay [1] it was 0.6 nM; in assay [2], 56 nM; in assay [7] it was 2.1 nM; in assay [3], 0.8 nM; in assay [4], 20 nM. Also, the IC50 in assay [5] is greater than 10000 nM.

In the case of `Cc1cc(-c2c(-c3ccc(F)cc3)nc(N)n3nc(Cc4nccs4)nc23)ccn1` [Example 11, 7-(4-fluorophenyl)-8-(2-methylpyridin-4-yl)-2-(thiazol-2-ylmethyl)-[1,2,4]triazolo[1,5-c]pyrimidin-5-amine], the half-maximal inhibitory concentration (IC50) is 34 nM in assay [1]; 219 nM in assay [2]; 78 nM in assay [3]; 9.7 nM in assay [4]; greater than 10000 nM in assay [5].

Turning to `Cc1cc(-c2c(-c3ccc(F)cc3)nc(N)n3nc(C(C)c4c(F)cccc4F)nc23)ccn1` (stereo not drawn) [Example 12, 2-[1-(2,6-difluorophenyl)ethyl]-7-(4-fluorophenyl)-8-(2-methylpyridin-4-yl)-[1,2,4]triazolo[1,5-c]pyrimidin-5-amine], the IC50 in assay [1] was 46 nM; in assay [2] it was 5000 nM; in assay [3], 316 nM; in assay [4] it was 214 nM; in assay [5], greater than 10000 nM.

For `Cc1cc(-c2c(-c3ccc(F)cc3)nc(N)n3nc(Cc4c(F)cccc4F)nc23)c(C)cn1` [Example 13, 2-[(2,6-difluorophenyl)methyl]-8-(2,5-dimethylpyridin-4-yl)-7-(4-fluorophenyl)-[1,2,4]triazolo[1,5-c]pyrimidin-5-amine], the IC50 in assay [1] was 11 nM; in assay [2], 81 nM; in assay [3], 56 nM; in assay [4], 153 nM; in assay [5] it was greater than 10000 nM.

Regarding `Cc1cc(-c2c(-c3ccc(F)cc3)nc(N)n3nc(Cc4ncccc4F)nc23)cc(C)n1` [Example 14], the IC50 in assay [1] was 6.9 nM; in assay [2], 2240 nM; in assay [3], 18 nM; in assay [4] it was 97 nM; in assay [5] it was greater than 10000 nM.

For `Cc1cc(-c2c(-c3ccc(F)cc3)nc(N)n3nc(Cc4ncccc4F)nc23)cc(Cl)n1` [Example 18, 8-(2-chloro-6-methylpyridin-4-yl)-7-(4-fluorophenyl)-2-((3-fluoropyridin-2-yl)methyl)-[l,2,4]triazolo[1,5-c]pyrimidin-5-amine], the IC50 in assay [1] is 1.2 nM; in assay [2], 511 nM; in assay [3], 9.6 nM; in assay [4] it was 49 nM; in assay [5], greater than 10000 nM.

Turning to `Cc1cc(-c2c(-c3ccc(F)cc3)nc(N)n3nc(Cc4cccc(C#N)n4)nc23)ccn1` [Example 19, 6-((5-amino-7-(4-fluorophenyl)-8-(2-methylpyridin-4-yl)-[1,2,4]triazolo[1,5-f]pyrimidin-2-yl)methyl)picolinonitrile], the IC50 was 102 nM in assay [1]; 303 nM in assay [2]; 88 nM in assay [3]; 23 nM in assay [4]; greater than 10000 nM in assay [5].

On to `Cn1cc(-c2c(-c3ncco3)nc(N)n3nc(Cc4ncccc4F)nc23)ccc1=O` [Example 21, 5-(5-amino-2-((3-fluoropyridin-2-yl)methyl)-7-(oxazol-2-yl)-[1,2,4]triazolo[1,5-c]pyrimidin-8-yl)-1-methylpyridin-2(1H)-one], for which the 50% inhibitory concentration (IC50) in assay [6] was 43 nM; in assay [1] it was 36 nM; in assay [2], 270 nM; in assay [7], 20 nM; in assay [3] it was 41 nM; in assay [4] it was 113 nM. This molecule showed a concentration for half-maximal inhibition (IC50) in assay [5] greater than 10000 nM.
